# Measured values taken from patent US4316898A, “Cephalosporins” (Boehringer Ingelheim KG, priority 1979, dated 1982).
# What was measured:
# Assay type in all cases: cell-based
# [1] = system: Staphylococcus aureus SG 511; assay: Serial dilution test in the microtiter system, MIC against S. aureus SG 511; conditions: SG511, minimum inhibitory concentration, 37° C., 18 to 20 hours
# Protocol: (§1) The tests were performed using the serial dilution test in the microtiter system. The effect of the test compounds on bacteriostasis was examined at the following concentrations: 80, 40, 20, 10, 5, 2.5, 1.25, 0.6, 0.3, 0.08 and 0.02 μgm/ml. The nutrient medium consisted of 10 gm of peptone, 8 gm of meat extract oxoid, 3 gm of sodium chloride, and 2 gm of sec. sodium phosphate diluted with distilled water to […] (pH 7.2-7.4). Only in the test against streptococci 1% of glucose was added. The age of the primary cultures was approximately 20 hours. The standardization of the bacteria suspension was effected using a photometer according to the method of Eppendorf (test tube .phi. 14 mm, filter 546 nm), using for comparison a barium sulfate suspension formed by the addition of 3.0 ml of 1% barium chloride solution to 97 ml of 1% sulfuric acid. After the standardization,Streptococcus aronson was further diluted to a concentration of 1:15, and the other bacteria to a concentration of 1:1500, using a sodium chloride solution.
# (§2) 16 mgm of the particular test compound were put into a 10 ml measuring flask, and the flask was subsequently filled to the mark with solvent. The further dilution series was standardized with distilled water or the appropriate solvent.
# (§3) The cavities of the microtiter plates were filled with 0.2 ml of nutrient medium. 0.01 ml of the appropriate test compound solution was then added, followed by inoculation with 0.01 ml of the standardized bacteria suspension. The bacteria were incubated at 37° C. for 18 to 20 hours. Control tests using only the solvent were carried out simultaneously.
# (§4) The measurement was carried out macroscopically to determine the minimum inhibitory concentration (the lowest still bacteriostatically effective concentration).
# (§5) The following test organisms were used:
# (§6) Staphylococcus aureus SG 511, St. aureus E 88 (β-lactamase carrier), Escherichia coli ATCC 11 775, Pseudomonas aeruginosa Hamburgensis and Pseudomonas aeruginosa Walter, Serratia macrescens ATCC 13 880, Klebsiella pneumoniae ATCC 10 031 and 272, Proteus mirabilis Hamburgensis, Proteus rettgeri Eb. cloaceae ATCC 13047, and E. coli R+TEM (β-lactamase carrier).
# (§7) The following tables show the determined minimum inhibitory concentrations (MIC) for a few representative compounds (E=Na) of the present invention, and two known cephalosporins for comparison: […]
# Proteus rettgeri = assay: Serial dilution test in the microtiter system, MIC against Proteus rettgeri; conditions: Providencia rettgeri; minimum inhibitory concentration; 37° C., 18 to 20 hours; read-out: MIC, Prot. rettg.
# Protocol: as §1, §2, §3, §4, §5, §6, §7
# [2] = system: Klebsiella pneumoniae ATCC 10 031; assay: Serial dilution test in the microtiter system, MIC against Klebsiella pneumoniae ATCC 10031; conditions: minimum inhibitory concentration, 37° C., 18 to 20 hours, read-out: MIC, Klebs. pneum. ATCC 10031
# Protocol: as §1, §2, §3, §4, §5, §6, §7
# [3] = system: Escherichia coli ATCC 11 775; assay: Serial dilution test in the microtiter system, MIC against E. coli ATCC 11775; conditions: minimum inhibitory concentration, 37° C., 18 to 20 hours
# Protocol: as §1, §2, §3, §4, §5, §6, §7
# Eb. cloaceae ATCC 13047 = assay: Serial dilution test in the microtiter system, MIC against Eb. cloaceae ATCC 13047; conditions: minimum inhibitory concentration; 37° C., 18 to 20 hours
# Protocol: as §1, §2, §3, §4, §5, §6, §7
# St. aureus E 88 = assay: Serial dilution test in the microtiter system, MIC against S. aureus E 88 (β-lactamase carrier); conditions: Staphylococcus aureus, E88, minimum inhibitory concentration, 37° C., 18 to 20 hours
# Protocol: as §1, §2, §3, §4, §5, §6, §7
# [4] = system: Pseudomonas aeruginosa Hamburgensis; assay: Serial dilution test in the microtiter system, MIC against Pseudomonas aeruginosa Hamburgensis; conditions: minimum inhibitory concentration, 37° C., 18 to 20 hours, read-out: MIC, Pseud. aerug. Hbg.
# Protocol: as §1, §2, §3, §4, §5, §6, §7
# [5] = system: Klebsiella pneumoniae 272; assay: Serial dilution test in the microtiter system, MIC against Klebsiella pneumoniae 272; conditions: minimum inhibitory concentration, 37° C., 18 to 20 hours, read-out: MIC, Klebs. pneum. 272
# Protocol: as §1, §2, §3, §4, §5, §6, §7
# [6] = system: Serratia macrescens ATCC 13 880; assay: Serial dilution test in the microtiter system, MIC against Serratia marcescens ATCC 13880; conditions: read-out: MIC, Serr. marcesc. ATCC 13880
# Protocol: as §1, §2, §3, §4, §5, §6, §7
# E. coli R+TEM = assay: Serial dilution test in the microtiter system, MIC against E. coli R+TEM (β-lactamase carrier); conditions: Escherichia coli, read-out: MIC, E. coli R + TEM
# Protocol: as §1, §2, §3, §4, §5, §6, §7
# [7] = system: Pseudomonas aeruginosa Walter; assay: Serial dilution test in the microtiter system, MIC against Pseudomonas aeruginosa Walter; conditions: minimum inhibitory concentration, 37° C., 18 to 20 hours, read-out: MIC, Pseud. aerug. Walter
# Protocol: as §1, §2, §3, §4, §5, §6, §7
# [8] = system: Proteus mirabilis Hamburgensis; assay: Serial dilution test in the microtiter system, MIC against Proteus mirabilis Hamburgensis; conditions: minimum inhibitory concentration, 37° C., 18 to 20 hours, read-out: MIC, Prot. Mir. Hbg.
# Protocol: as §1, §2, §3, §4, §5, §6, §7
SMILES,MIC [1],MIC (Proteus rettgeri),MIC [2],MIC [3],MIC (Eb. cloaceae ATCC 13047),MIC (St. aureus E 88),MIC [4],MIC [5],MIC [6],MIC (E. coli R+TEM),MIC [7],MIC [8]
"Cc1nnc(SCC2=C(C(=O)O)N3C(=O)[C@@H](NC(=O)Cn4cnnn4)[C@H]3SC2)s1 [Cephazolin, reference compound]",0.06 µg/mL,> 100 µg/mL,1 µg/mL,4 µg/mL,> 100 µg/mL,8 µg/mL,> 100 µg/mL,2 µg/mL,> 100 µg/mL,4 µg/mL,> 100 µg/mL,4 µg/mL
Cn1nnnc1SCC1=C(C(=O)O)N2C(=O)[C@@H](NC(=O)C(NC(=O)Nc3cnc(NC4CCC(O)CC4)nc3O)c3cccs3)[C@H]2SC1 (stereo partly drawn) [F],1 µg/mL,2 µg/mL,2 µg/mL,0.5 µg/mL,4 µg/mL,8 µg/mL,16 µg/mL,2 µg/mL,2 µg/mL,16 µg/mL,16 µg/mL,0.5 µg/mL
CC(=O)Nc1nnc(SCC2=C(C(=O)O)N3C(=O)[C@@H](NC(=O)[C@H](NC(=O)Nc4cnc(NC5CCC(O)CC5)nc4O)c4ccc(O)cc4)[C@H]3SC2)s1 (stereo partly drawn) [D],1 µg/mL,8 µg/mL,2 µg/mL,1 µg/mL,8 µg/mL,8 µg/mL,8 µg/mL,2 µg/mL,4 µg/mL,16 µg/mL,8 µg/mL,1 µg/mL
CNc1nnc(SCC2=C(C(=O)O)N3C(=O)[C@@H](NC(=O)[C@H](NC(=O)Nc4cnc(Nc5ccc(S(=O)(=O)NC)cc5)nc4O)c4ccc(O)cc4)[C@H]3SC2)s1 [J],1 µg/mL,1 µg/mL,0.5 µg/mL,0.5 µg/mL,1 µg/mL,16 µg/mL,8 µg/mL,0.25 µg/mL,0.5 µg/mL,8 µg/mL,8 µg/mL,0.25 µg/mL
Cn1nnnc1SCC1=C(C(=O)O)N2C(=O)[C@@H](NC(=O)C(NC(=O)Nc3cnc(Nc4ccc(S(N)(=O)=O)cc4)nc3O)c3cccs3)[C@H]2SC1 (stereo partly drawn) [M],0.5 µg/mL,0.5 µg/mL,0.25 µg/mL,0.13 µg/mL,0.5 µg/mL,4 µg/mL,4 µg/mL,0.25 µg/mL,0.25 µg/mL,4 µg/mL,4 µg/mL,0.13 µg/mL
Cc1nnc(SCC2=C(C(=O)O)N3C(=O)[C@@H](NC(=O)[C@H](NC(=O)Nc4cnc(NC5CCC(O)CC5)nc4O)c4ccc(O)cc4)[C@H]3SC2)s1 (stereo partly drawn) [G],1 µg/mL,1 µg/mL,2 µg/mL,0.5 µg/mL,2 µg/mL,16 µg/mL,16 µg/mL,2 µg/mL,2 µg/mL,16 µg/mL,16 µg/mL,0.5 µg/mL
CNS(=O)(=O)c1ccc(Nc2ncc(NC(=O)N[C@@H](C(=O)N[C@@H]3C(=O)N4C(C(=O)O)=C(CSc5nnc(C)s5)CS[C@H]34)c3ccc(O)cc3)c(O)n2)cc1 [N],1 µg/mL,0.5 µg/mL,0.25 µg/mL,0.25 µg/mL,1 µg/mL,8 µg/mL,4 µg/mL,0.5 µg/mL,0.25 µg/mL,4 µg/mL,4 µg/mL,0.5 µg/mL
CNS(=O)(=O)c1ccc(Nc2ncc(NC(=O)N[C@@H](C(=O)N[C@@H]3C(=O)N4C(C(=O)O)=C(COC(C)=O)CS[C@H]34)c3ccc(O)cc3)c(O)n2)cc1 [H],1 µg/mL,0.5 µg/mL,0.5 µg/mL,0.13 µg/mL,2 µg/mL,16 µg/mL,4 µg/mL,0.5 µg/mL,0.5 µg/mL,16 µg/mL,4 µg/mL,0.6 µg/mL
